Assay results taken from patent US20160235727A1, “NOVEL PYRROLIDINE DERIVED BETA 3 ADRENERGIC RECEPTOR AGONISTS” (Merck Sharp & Dohme Corp., priority 2013, published 2016).

Target: T1, human β3-AR (Homo sapiens, UniProt P13945)
T1 construct: expressed in transfected cells; host or cells: CHO (Chinese hamster ovary) cells, stably transfected
Assay: cAMP functional agonist assay (LANCE TR-FRET) in CHO cells expressing cloned human β3-AR
Type: cell-based
Settings: for EC50: CHO cells stably expressing cloned human β3-adrenoceptor, cAMP release, read-out: Human β3-AR Agonism EC50; for Fold drop in potency vs. 2-chloropyridine analog: EC50 of comparative example divided by EC50 of corresponding 2-chloropyridine compound; for Human β3-AR Agonist Activity (%): percent maximum activation relative to isoproterenol

T1 sequence (P13945 whole entry): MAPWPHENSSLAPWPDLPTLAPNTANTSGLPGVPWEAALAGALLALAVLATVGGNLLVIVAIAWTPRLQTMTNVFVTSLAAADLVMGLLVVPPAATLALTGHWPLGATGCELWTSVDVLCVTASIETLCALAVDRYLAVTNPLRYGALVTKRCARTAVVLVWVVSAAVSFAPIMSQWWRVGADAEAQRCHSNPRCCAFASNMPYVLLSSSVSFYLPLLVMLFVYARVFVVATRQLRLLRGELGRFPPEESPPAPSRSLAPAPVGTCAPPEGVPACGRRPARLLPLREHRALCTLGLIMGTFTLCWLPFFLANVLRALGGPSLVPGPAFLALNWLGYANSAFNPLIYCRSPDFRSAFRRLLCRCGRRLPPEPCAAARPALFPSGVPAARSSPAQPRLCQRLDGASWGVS

Row | EC50 [nM] | Fold drop in potency vs. 2-chloropyridine analog [fold] | Human β3-AR Agonist Activity (%) | Structure (SMILES)
1 | 59 | 4.3 | 101 | Cc1nnc(-c2cncc(CN(C)C(=O)c3ccc(C[C@@H]4CC[C@H]([C@H](O)c5ccccc5)N4)cc3)c2)o1 [Example 36-B, 4-(((2S,5R)-5-((R)-hydroxy(phenyl)methyl)pyrrolidin-2-yl)methyl)-N-methyl-N-((5-(5-methyl-1,3,4-oxadiazol-2-yl)pyridin-3-yl)methyl)benzamide]
2 | 27 | – | 94 | CN(Cc1cncc(-c2nnn[nH]2)c1)C(=O)c1ccc(C[C@@H]2CC[C@H]([C@H](O)c3ccc(Cl)nc3)N2)cc1 [Example 37-A, N-((5-(1H-tetrazol-5-yl)pyridin-3-yl)methyl)-4-(((2S,5R)-5-((R)-(6-chloropyridin-3-yl)(hydroxy)methyl)pyrrolidin-2-yl)methyl)-N-methylbenzamide]
3 | 63 | 2.4 | 101 | CN(Cc1cncc(-c2nn[nH]n2)c1)C(=O)c1ccc(C[C@@H]2CC[C@H]([C@H](O)c3ccccc3)N2)cc1 [Example 37-B, N-((5-(1H-tetrazol-5-yl)pyridin-3-yl)methyl)-4-(((2S,5R)-5-((R)-hydroxy(phenyl)methyl)pyrrolidin-2-yl)methyl)-N-methylbenzamide]
4 | 8 | – | 58 | CN(Cc1cncc(F)c1)C(=O)c1ccc(C[C@@H]2CC[C@H]([C@H](O)c3ccc(Cl)nc3)N2)cc1 [Example 38-A, 4-(((2S,5R)-5-((R)-(6-chloropyridin-3-yl)(hydroxy)methyl)pyrrolidin-2-yl)methyl)-N-((5-fluoropyridin-3-yl)methyl)-N-methylbenzamide]
5 | 7 | 0.9 | 100 | CN(Cc1cncc(F)c1)C(=O)c1ccc(C[C@@H]2CC[C@H]([C@H](O)c3ccccc3)N2)cc1 [Example 38-B, N-((5-fluoropyridin-3-yl)methyl)-4-(((2S,5R)-5-((R)-hydroxy(phenyl)methyl)pyrrolidin-2-yl)methyl)-N-methylbenzamide]
6 | 1 | – | 96 | Cc1cc(CN(C)C(=O)c2ccc(C[C@@H]3CC[C@H]([C@H](O)c4ccc(Cl)nc4)N3)cc2)cnc1F [Example 39-A, 4-(((2S,5R)-5-((R)-(6-chloropyridin-3-yl)(hydroxy)methyl)pyrrolidin-2-yl)methyl)-N-((6-fluoro-5-methylpyridin-3-yl)methyl)-N-methylbenzamide]
7 | 2 | 3.8 | 104 | Cc1cc(CN(C)C(=O)c2ccc(C[C@@H]3CC[C@H]([C@H](O)c4ccccc4)N3)cc2)cnc1F [Example 39-B]
8 | 7 | 14.1 | 103 | Cc1cc(CN(C)C(=O)c2ccc(C[C@@H]3CC[C@H]([C@H](O)c4cccnc4)N3)cc2)cnc1F [Example 39-H]
9 | 12 | – | 111 | CN(Cc1cnccn1)C(=O)c1ccc(C[C@@H]2CC[C@H]([C@H](O)c3ccc(Cl)nc3)N2)cc1 [Example 40-A, 4-(((2S,5R)-5-((R)-(6-chloropyridin-3-yl)(hydroxy)methyl)pyrrolidin-2-yl)methyl)-N-methyl-N-(pyrazin-2-ylmethyl)benzamide]
10 | 17 | 1.5 | 99 | CN(Cc1cnccn1)C(=O)c1ccc(C[C@@H]2CC[C@H]([C@H](O)c3ccccc3)N2)cc1 [Example 40-B, 4-(((2S,5R)-5-((R)-hydroxy(phenyl)methyl)pyrrolidin-2-yl)methyl)-N-methyl-N-(pyrazin-2-ylmethyl)benzamide]
11 | 567 | 48.6 | 86 | CN(Cc1cnccn1)C(=O)c1ccc(C[C@@H]2CC[C@H]([C@H](O)c3cccc(Cl)c3)N2)cc1 [Example 40-D, 4-(((2S,5R)-5-((R)-(3-chlorophenyl)(hydroxy)methyl)pyrrolidin-2-yl)methyl)-N-methyl-N-(pyrazin-2-ylmethyl)benzamide]
12 | 19 | 1.6 | 100 | CN(Cc1cnccn1)C(=O)c1ccc(C[C@@H]2CC[C@H]([C@H](O)c3ccc(Cl)cc3)N2)cc1 [Example 40-G, 4-(((2S,5R)-5-((R)-(4-chlorophenyl)(hydroxy)methyl)pyrrolidin-2-yl)methyl)-N-methyl-N-(pyrazin-2-ylmethyl)benzamide]
13 | 373 | 32.0 | 87 | CN(Cc1cnccn1)C(=O)c1ccc(C[C@@H]2CC[C@H]([C@H](O)c3cncc(F)c3)N2)cc1 [Example 40-R, 4-(((2S,5R)-5-((R)-(5-fluoropyridin-3-yl)(hydroxy)methyl)pyrrolidin-2-yl)methyl)-N-methyl-N-(pyrazin-2-ylmethyl)benzamide]
14 | 3130 | 268.2 | 60 | Cc1cc([C@@H](O)[C@H]2CC[C@@H](Cc3ccc(C(=O)N(C)Cc4cnccn4)cc3)N2)cnc1Cl [Example 40-S, 4-(((2S,5R)-5-((R)-(6-chloro-5-methylpyridin-3-yl)(hydroxy)methyl)pyrrolidin-2-yl)methyl)-N-methyl-N-(pyrazin-2-ylmethyl)benzamide]
15 | 2 | – | 98 | CC(c1cnccn1)N(C)C(=O)c1ccc(C[C@@H]2CC[C@H]([C@H](O)c3ccc(Cl)nc3)N2)cc1 (stereo partly drawn) [Example 41-A, 4-(((2S,5R)-5-((R)-(6-chloropyridin-3-yl)(hydroxy)methyl)pyrrolidin-2-yl)methyl)-N-methyl-N-(1-(pyrazin-2-yl)ethyl)benzamide]
16 | 16 | 9.1 | 109 | CC(c1cnccn1)N(C)C(=O)c1ccc(C[C@@H]2CC[C@H]([C@H](O)c3ccccc3)N2)cc1 (stereo partly drawn) [Example 41-B, 4-(((2S,5R)-5-((R)-hydroxy(phenyl)methyl)pyrrolidin-2-yl)methyl)-N-methyl-N-(1-(pyrazin-2-yl)ethyl)benzamide]
17 | 6 | 3.5 | 83 | CC(c1cnccn1)N(C)C(=O)c1ccc(C[C@@H]2CC[C@H]([C@H](O)c3ccc(F)cc3)N2)cc1 (stereo partly drawn) [Example 41-F, 4-(((2S,5R)-5-((R)-(4-fluorophenyl)(hydroxy)methyl)pyrrolidin-2-yl)methyl)-N-methyl-N-(1-(pyrazin-2-yl)ethyl)benzamide]
18 | 3 | – | 94 | CN(Cc1ccnnc1)C(=O)c1ccc(C[C@@H]2CC[C@H]([C@H](O)c3ccc(Cl)nc3)N2)cc1 [Example 42-A, 4-(((2S,5R)-5-((R)-(6-chloropyridin-3-yl)(hydroxy)methyl)pyrrolidin-2-yl)methyl)-N-methyl-N-(pyridazin-4-ylmethyl)benzamide]
19 | 55 | 16.1 | 111 | CN(Cc1ccnnc1)C(=O)c1ccc(C[C@@H]2CC[C@H]([C@H](O)c3ccccc3)N2)cc1 [Example 42-B, 4-(((2S,5R)-5-((R)-hydroxy(phenyl)methyl)pyrrolidin-2-yl)methyl)-N-methyl-N-(pyridazin-4-ylmethyl)benzamide]
20 | > 10000 | – | 45 | Cc1nnc2ccc(CN(C)C(=O)c3ccc(C[C@@H]4CC[C@H]([C@H](O)c5ccc(Cl)nc5)N4)cc3)cn12 [Example 43-A, 4-(((2S,5R)-5-((R)-(6-chloropyridin-3-yl)(hydroxy)methyl)pyrrolidin-2-yl)methyl)-N-methyl-N-((3-methyl-[1,2,4]triazolo[4,3-a]pyridin-6-yl)methyl)benzamide]
21 | 1620 | <0.12 | 79 | Cc1nnc2ccc(CN(C)C(=O)c3ccc(C[C@@H]4CC[C@H]([C@H](O)c5ccccc5)N4)cc3)cn12 [Example 43-B, 4-(((2S,5R)-5-((R)-hydroxy(phenyl)methyl)pyrrolidin-2-yl)methyl)-N-methyl-N-((3-methyl-[1,2,4]triazolo[4,3-a]pyridin-6-yl)methyl)benzamide]
22 | 2 | – | 99 | CN(Cc1nc2ccsc2c(=O)[nH]1)C(=O)c1ccc(C[C@@H]2CC[C@H]([C@H](O)c3ccc(Cl)nc3)N2)cc1 [Example 44-A, 4-(((2S,5R)-5-((R)-(6-chloropyridin-3-yl)(hydroxy)methyl)pyrrolidin-2-yl)methyl)-N-methyl-N-((4-oxo-3,4-dihydrothieno[3,2-d]pyrimidin-2-yl)methyl)benzamide]
23 | 4 | 1.7 | 97 | CN(Cc1nc2ccsc2c(=O)[nH]1)C(=O)c1ccc(C[C@@H]2CC[C@H]([C@H](O)c3ccccc3)N2)cc1 [Example 44-B, 4-(((2S,5R)-5-((R)-hydroxy(phenyl)methyl)pyrrolidin-2-yl)methyl)-N-methyl-N-((4-oxo-3,4-dihydrothieno[3,2-d]pyrimidin-2-yl)methyl)benzamide]
24 | 25 | – | 90 | CN(Cc1nc2ccccc2c(=O)n1C)C(=O)c1ccc(C[C@@H]2CC[C@H]([C@H](O)c3ccc(Cl)nc3)N2)cc1 [Example 45-A, 4-(((2S,5R)-5-((R)-(6-chloropyridin-3-yl)(hydroxy)methyl)pyrrolidin-2-yl)methyl)-N-methyl-N-((3-methyl-4-oxo-3,4-dihydroquinazolin-2-yl)methyl)benzamide]
